Assay [1] deals with leukemia cells (U937, Jurkat, SupT13 and A20), solid tumor cells (HT1080). Put plainly: MTT cell viability, leukemia and solid tumor cell panel. The format is cell-based. The conditions noted are these: 48 hours. An excerpt: The results, shown in FIG. 7A and FIG. 7B, are expressed as a percent of vehicle control and presented as means±SEM (n=3).
Assay [2] relates to Mouse splenic lymphocytes. Put plainly: Mitogen-stimulated lymphocyte proliferation, 3H-thymidine incorporation. The format is cell-based. The conditions noted are these: 188 μM=50 μg/ml. The method, then:
Studies were conducted to determine whether D609 enhances mouse splenic lymphocyte mitogenic responses and IFNγ production. Mouse splenic lymphocytes at 2.5×10^6/ml were stimulated with LPS or ConA in the presence or absence of D609. The cell proliferation was measure by 3H-thymidine incorporation after the cells were cultured with LPS (FIG. 8A) or with ConA (FIG. 8B). […] In addition, the supernatants of ConA-stimulated lymphocyte cultures were harvested at various times and measured for IFNγ production by ELISA (FIG. 8C).
A general note: Uptake of a labelled nucleoside into DNA is a usual measure of proliferation.

In assay [3] the test system is A20 lymphoma. Conditions: 50 mg/kg i.v., alone or with 6.0 Gy irradiation. The method, then:
A20 lymphoma was induced in normal BALB/c male mice by the tail vein injection of 5×10^5 cultured A20 cells. Two days later, the mice were assigned to groups of 10 mice each and received i.v. 1) saline, 2) 50 mg/kg D609, 3) saline plus 6.0 Gy irradiation or 4) D609 plus irradiation. Total body irradiation was given 10 min after D609 injection. Survival of each mouse was then followed by daily monitoring and weighing (5×/week).

Regarding `S=C([S-])OC1CC2CC1C1CCCC21.[K+]` (stereo not drawn) [Prodrug D609, Tricyclodecan-9-yl-xanthogenate], the cell viability entry in assay [1] is on record as “dose-dependent reduction in cell viability”. Besides, in assay [2], the “mitogenic responses to LPS or ConA” value is “enhanced their mitogenic responses”. For the same compound, the therapeutic response result in assay [3] is listed as “no significant therapeutic response”.

These data come from patent US20070244076A1, “Site and Rate Selective Prodrug Formulations of D609 with Antioxidant and Anticancer Activity” (priority 2003, published 2007).
